Laboratory results published in publication PMC6576746, “Rational discovery of dual-indication multi-target PDE/Kinase inhibitor for precision anti-cancer therapy using structural systems pharmacology” (PLoS Computational Biology, 2019).

How the values were obtained:
Test in all cases: cells
Design in all cases: species or system panel of human cancer cell lines; Eurofins OncoPanel proliferation; nuclei count by high-content fluorescence imaging, 10-point dose response
HPAF-II = details: Homo sapiens, HPAF-II, 72 h, cell count, 3 days
How it was run: (§1)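 Ten half-log concentrations from 100 μM (0.1% DMSO max) applied one day post-seeding, 3-day exposure at 37°C; untreated time-zero plate for GI50. Readout is nuclear cell count by automated fluorescence imaging, giving EC50, IC50, GI50 and 0–10 activity area.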

Raji = details: Homo sapiens, Raji, 72 h, cell count, 3 days
How it was run: as §1

A427 = details: Homo sapiens, A-427, 72 h, cell count, 3 days
How it was run: as §1

Daudi = details: Homo sapiens, Daudi, 72 h, cell count, 3 days
How it was run: as §1

UM-UC-3 = details: Homo sapiens, UMUC3, 72 h, cell count, 3 days
How it was run: as §1

MES-SA = details: Homo sapiens, MES-SA, 72 h, cell count, 3 days
How it was run: as §1

HepG2 = details: Homo sapiens, HepG2, 72 h, cell count, 3 days
How it was run: as §1

SW620 = details: Homo sapiens, SW-620, 72 h, cell count, 3 days
How it was run: as §1

CCF-STTG1 = details: Homo sapiens, CCF-STTG1, 72 h, cell count, 3 days
How it was run: as §1

SW48 = details: Homo sapiens, SW48, 72 h, cell count, 3 days
How it was run: as §1

RS4;11 = details: Homo sapiens, RS4-11, 72 h, cell count, 3 days
How it was run: as §1

HT-29 = details: Homo sapiens, HT-29, 72 h, cell count, 3 days
How it was run: as §1

GA-10 = details: Homo sapiens, GA-10, 72 h, cell count, 3 days
How it was run: as §1

MX-1 = details: Homo sapiens, MX1, 72 h, cell count, 3 days
How it was run: as §1

[1] = 50% of maximum possible response

IC50 (Raji; [1]): 69.1 µM
GI50 (Raji; corrected for time zero): 63.4 µM
EC50 (Raji; curve inflection point): 69.1 µM
IC50 (Daudi; [1]): 16.3 µM
GI50 (Daudi; corrected for time zero): 14.2 µM
EC50 (Daudi; curve inflection point): 15.3 µM
IC50 (HepG2; [1]): 42.1 µM
GI50 (HepG2; corrected for time zero): 36.7 µM
EC50 (HepG2; curve inflection point): 42.1 µM
IC50 (SW620; [1]): 19.7 µM
GI50 (SW620; corrected for time zero): 14.9 µM
EC50 (SW620; curve inflection point): 18.7 µM
IC50 (SW48; [1]): 13.5 µM
GI50 (SW48; corrected for time zero): 9.81 µM
EC50 (SW48; curve inflection point): 13.5 µM
IC50 (RS4;11; [1]): 29.7 µM
GI50 (RS4;11; corrected for time zero): 19.6 µM
EC50 (RS4;11; curve inflection point): 25.4 µM
IC50 (HT-29; [1]): > 100 µM
GI50 (HT-29; corrected for time zero): 82.7 µM
EC50 (HT-29; curve inflection point): > 100 µM
Compound: C[C@@H]1CC(=O)NN=C1c1ccc(NN=C(C#N)C#N)cc1 [levosimendan]
IC50 (HPAF-II; [1]): 65.8 µM
GI50 (HPAF-II; corrected for time zero): 54 µM
EC50 (HPAF-II; curve inflection point): 65.8 µM
IC50 (A427; [1]): 23.6 µM
GI50 (A427; corrected for time zero): 18.4 µM
EC50 (A427; curve inflection point): 23.6 µM
IC50 (UM-UC-3; [1]): 48.5 µM
GI50 (UM-UC-3; corrected for time zero): 46 µM
EC50 (UM-UC-3; curve inflection point): 48.5 µM
IC50 (MES-SA; [1]): 15.6 µM
GI50 (MES-SA; corrected for time zero): 13.7 µM
EC50 (MES-SA; curve inflection point): 15.6 µM
IC50 (CCF-STTG1; [1]): > 100 µM
GI50 (CCF-STTG1; corrected for time zero): > 100 µM
EC50 (CCF-STTG1; curve inflection point): > 100 µM
IC50 (GA-10; [1]): 10.2 µM
GI50 (GA-10; corrected for time zero): 9.28 µM
EC50 (GA-10; curve inflection point): 10.2 µM
IC50 (MX-1; [1]): 40.4 µM
GI50 (MX-1; corrected for time zero): 37 µM
EC50 (MX-1; curve inflection point): 40.4 µM
